{
  "source": "BindingDB's records for doi:10.1021/jm00112a042",
  "about": "(Zambeletti Research Laboratories, 1991)",
  "note": "Where “and” joins values, the source holds several entries; their conditions need not be identical. Identical values can stand only once.",
  "data": [
    {"assay": "Binding affinity was measured on opioid receptor delta sites.", "values": [
      {"smiles": "O=C(Cc1ccc(C(F)(F)F)cc1)N1CCc2ccccc2C1CN1CCCCC1", "note": "(stereo unspecified)", "Ki": "> 1000 nM"},
      {"smiles": "O=C(Cc1ccc(Cl)c(Cl)c1)N1CCc2c([nH]c3ccccc23)C1CN1CCCC1", "note": "(stereo unspecified)", "Ki": "> 1000 nM"},
      {"smiles": "CN(C)CC1c2ccccc2CCN1C(=O)Cc1ccc(Cl)c(Cl)c1", "note": "(stereo unspecified)", "Ki": "746 nM"},
      {"smiles": "O=C(Cc1ccc(C(F)(F)F)cc1)N1CCc2ccccc2[C@H]1CN1CCCC1", "Ki": "> 1000 nM and 149 nM"},
      {"smiles": "O=C(Cc1ccc(C(F)(F)F)cc1)N1CCCC[C@H]1CN1CCCC1", "note": "[1-(2-Pyrrolidin-1-ylmethyl-piperidin-1-yl)-2-(4-trifluoromethyl-phenyl)-ethanone]", "Ki": "1000 nM"}
    ]},
    {"assay": "Affinity for opioid receptor delta sites", "units": {"Ki": "nM"}, "values": [
      {"smiles": "O=C(Cc1ccc(Cl)c(Cl)c1)N1CCc2sccc2C1CN1CCCC1", "note": "(stereo unspecified)", "Ki": 153},
      {"smiles": "O=C(Cc1ccc(Cl)c(Cl)c1)N1CCc2[nH]c3ccccc3c2C1CN1CCCC1", "note": "(stereo unspecified)", "Ki": "> 1000"},
      {"smiles": "O=C(Cc1ccc(Cl)c(Cl)c1)N1CCc2sccc2C1CN1CCCCC1", "note": "(stereo unspecified)", "Ki": "> 1000"},
      {"smiles": "O=C(Cc1ccc(Cl)c(Cl)c1)N1CCc2ccsc2C1CN1CCCC1", "note": "(stereo unspecified)", "Ki": 362},
      {"smiles": "O=C(Cc1ccc(C(F)(F)F)cc1)N1CCc2sccc2C1CN1CCCCC1", "note": "(stereo unspecified)", "Ki": "> 1000"},
      {"smiles": "O=C(Cc1ccc(Cl)c(Cl)c1)N1CCCC[C@H]1CN1CCCC1", "note": "[2-(3,4-Dichloro-phenyl)-1-(2-pyrrolidin-1-ylmethyl-piperidin-1-yl)-ethanone]", "Ki": 1000}
    ]}
  ]
}
